Series [1] concerns rabbit gastric lipase followed by porcine pancreatic lipase. In words: Sequential in vitro digestion SGF (RGL) followed by SIF (PPL), pH-stat.
Source text: No measurements were taken in the gastric compartment due to limited ionisation of the target fatty acids.
Series [2] concerns the target T1, porcine pancreatic lipase (from pancreatin) (Sus scrofa, UniProt P00591).
T1 sequence (P00591 1-450): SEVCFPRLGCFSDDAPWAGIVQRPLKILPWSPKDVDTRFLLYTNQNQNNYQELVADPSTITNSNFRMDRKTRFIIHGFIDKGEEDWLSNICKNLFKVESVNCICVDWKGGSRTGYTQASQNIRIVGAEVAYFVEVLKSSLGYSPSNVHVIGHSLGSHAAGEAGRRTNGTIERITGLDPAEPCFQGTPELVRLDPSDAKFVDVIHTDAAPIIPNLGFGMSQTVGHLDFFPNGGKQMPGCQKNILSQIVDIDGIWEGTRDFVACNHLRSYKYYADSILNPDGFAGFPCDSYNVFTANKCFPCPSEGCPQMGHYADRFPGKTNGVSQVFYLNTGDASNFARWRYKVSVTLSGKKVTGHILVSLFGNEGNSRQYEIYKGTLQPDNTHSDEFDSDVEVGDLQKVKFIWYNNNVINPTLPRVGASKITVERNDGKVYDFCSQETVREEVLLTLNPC
T1 sequence (P02703 23-112 partner): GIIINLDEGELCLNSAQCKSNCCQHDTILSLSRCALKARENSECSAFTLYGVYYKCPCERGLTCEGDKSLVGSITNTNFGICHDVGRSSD

Entries after “also recorded” stand apart in the source; their conditions may differ.

Regarding `CCCC(=O)OCC(COC(=O)CCC)OC(=O)CCC` [tributyrin], the “Initial lipolysis rate in SIF during SGF-SIF digestion” value in series [1] (after 90 min SGF with rabbit gastric lipase, emulsion with 200 mg fat) worked out at 44.1 ± 8.8 µmol/min. Also, the “Hydrolysis in the stomach (gastric compartment of the model)” value in series [1] (in words) was “considerable digestion; also recorded: extensive hydrolysis”. Also, the “Lipolysis by gastric lipase” value in series [1] (indicated by decreased total fatty acid release in SIF after RGL pre-exposure) is listed as around 60%. Besides, the “Initial rate of lipolysis” value in series [2] (SIF alone, emulsion with 200 mg fat, pH 6.8, 37° C.) turned out to be 223 ± 59 µmol/min. In series [2] (back titration to pH 11.5, after SIF and SGF-SIF (FIG. 2)), the “Overall extent of lipid digestion” value came to 101.5±0.9%.

Values taken from US20250325511A1, “DIETARY BUTYRATE” (SOCIETE DES PRODUITS NESTLE S.A., priority 2019, published 2025).
